{"source": "patent US12646341B2", "about": "“Image processing method and image processing program” (TOPPAN Inc., priority 2020, dated 2026)", "tested_on": "vascular network structure of 3D hepatic model (PXB cells, SEC, Lx2)", "description": "The vascular network structure of the cell structure becomes visible by subjecting the 3D hepatic model to immunostaining, fluorescent modification, or a combination of immunostaining and fluorescent modification.\nThe preparation process may include, for example, a first collection process of collecting cells other than fresh human hepatocytes isolated from chimeric mice with human hepatocytes (PXB cell) shown in Table 1, a second collection process of collecting PXB cells, a mixture obtaining process of obtaining a cell mixture, a suspension obtaining process of obtaining a cell suspension, a gel formation process of forming a fibrin gel, and a model obtaining process of obtaining a 3D model.\nIn the mixture obtaining process, for example, the cells collected in the first collection process and the second collection process are mixed so that a total quantity of cells per well becomes 30,000 cells at the cell ratios of PXB cells, SEC and Lx2 in the tissue of 65%, 25% and 10%, respectively, to obtain a cell mixture (an example of cell structure). The cell mixture contains multiple types of cells including vascular endothelial cells and other stromal cells.\nIn the suspension obtaining process, first, for example, a heparin-collagen solution is prepared by mixing equal amounts of a 1.0 mg/ml heparin solution (buffer: 100 mM Tris-HCL) and a 0.3 mg/ml collagen solution (buffer: 5 mM acetate). Then, 100 μL of the heparin-collagen solution prepared as described above is added to each cell mixture obtained in the mixture obtaining process, and the mixture is suspended until the cells are no longer visually observable and then centrifuged (400 g×2 min) to obtain a viscous solution. After the supernatant is removed from the viscous solution, a solvent is added to the viscous solution so that the final volume of the viscous solution becomes the solution amount of [the number of wells to be seeded]×2 μL. Thus, a cell suspension is obtained. […]", "data": [{"smiles": "O=P1(N(CCCl)CCCl)NCCCO1", "note": "(stereo not drawn) [cyclophosphamide]", "values": [{"measurement": "length of the vascular network structure in the captured images", "setting": "FIGS. 9A-9F, dosage concentration 0 M, 143 M, 430 M, 1430 μM, 4300 μM and 14300 M", "result": "the higher the dosage concentration of cyclophosphamide, the smaller the length of the vascular network structure"}, {"measurement": "skeleton length in the extracted images", "setting": "FIGS. 9G-9L, dosage concentration 0 M, 143 M, 430 M, 1430 μM, 4300 μM and 14300 M", "result": "the higher the dosage concentration of cyclophosphamide, the smaller the skeleton length"}, {"measurement": "shape of the vascular network structure (skeleton length and number of branch points in the extracted images)", "setting": "FIGS. 10A and 10B, against dosage concentration", "result": "the shape of the vascular network structure significantly changes and the vascular network structure decreases when the dosage concentration of cyclophosphamide exceeds a certain level"}]}]}
